Laboratory results as given in US11103602B2, “PET imaging of zinc transport” (Mayo Foundation for Medical Education and Research, priority 2013, dated 2021).
Where “and” joins values, the source holds several entries; their conditions need not be identical. Identical values can stand only once.

How the values were obtained:
[1] = cited from earlier work
[2] = PET images of ^63Zn Citrate in human subjects; format: in vivo
Excerpt: High uptake is seen in liver, pancreas, spleen, intestines, and thyroid.

[3] = Biodistribution of ^63Zn citrate in normal mice; format: in vivo
[4] = Biodistribution of ^63Zn citrate in normal mice; format: in vivo; remark: listed apart in the source
Description: Uptake may be measured in units of Standardized Uptake Value (SUV)=(uptake/g tissue)/(injected dose/g body mass).
Biodistribution characteristics of ^63Zn citrate were investigated in male B6.SJL mice (n=4) (Jackson Laboratories, Bar Harbor, Me., USA) under the approval of the Mayo Clinic Institutional Animal Care and Use Committee. Animals were administered ^63Zn citrate (˜1.8-3.6 MBq) into a tail vein and euthanized at 60 minutes for biodistribution analysis. Tissues were weighed and counted for radioactivity. Biodistribution data were expressed as Standard Uptake Value (SUV)=(counts/g)tissue/(injected dose counts/wt. of mouse (g)).
Biodistribution data was expressed as mean±sd. Statistical comparison of analytical data between groups of runs was performed using the two-tailed Student's T-test. Statistical comparison of intracerebral regional uptake of ^63Zn was performed using ANOVA. P-values <0.05 were considered statistically significant.

[5] = Pharmacokinetics of ^63Zn Citrate in cerebral cortical region of interest; format: in vivo, human; conditions: for Vascular clearance phase in cerebral cortical region of interest: post-injection
[6] = Pharmacokinetics of ^63Zn Citrate in blood and plasma of an Alzheimer's disease patient; format: in vivo, human
Description: Venous blood samples were taken in heparinized tubes after injection of radiotracer. The samples were centrifuged, and plasma separated. The curves show a rapid clearance of ^63Zn from the blood that is completed by 90 minutes. After this time, the concentrations of ^63Zn in both plasma and whole blood are relatively constant. The concentration of ^63Zn in whole-blood rises relative to plasma to reach equilibrium at around 90 minutes post-injection.

[7] = brain at 30 minutes; vs Be, Sc, V, Cr, Mn, Fe, Co, As, Se, Rb, Sr, Y, Zr, Tc, Ru; cited from earlier work
[8] = individual normal (Wild) mice 1-5, 1 hour after IV
[9] = individual normal (Wild) mice 3-5, 1 hour after IV
[10] = mean of normal mice, 1 hour after IV
[11] = mean of normal mice, 1 hour after IV, listed as 63Zn
[12] = mean of normal mice, 1 hour after IV, listed as 63Zn Citrate
[13] = subject with Alzheimer's disease

CN(C)Cc1ccc2c(Cl)cc(Cl)c(O)c2n1 [PBT2]
Levels of AβO and p-Tau in the cerebrospinal fluid (CSF) ([1]; AD patients treated for a 12-week period): significantly decreased | Cognitive test scores ([1]; AD patients, 12-week period, highest dose level (250 mg daily)): significant improvement

O=C([O-])CC(O)(CC(=O)[O-])C(=O)[O-].O=C([O-])CC(O)(CC(=O)[O-])C(=O)[O-].[63Zn+2].[63Zn+2].[63Zn+2] [^63Zn citrate]
Uptake in cerebral cortex, prostate, pituitary gland, and salivary glands (PET) ([2]; Alzheimer's disease subject): Moderate to low uptake | Uptake in liver, pancreas, spleen, intestines, and thyroid (PET) ([2]; Alzheimer's disease subject): High uptake | Uptake in cerebral cortex, pituitary gland, and salivary glands (PET) ([2]; healthy elderly human subject): Moderate to low uptake | Uptake in liver, pancreas, spleen, intestines, and thyroid (PET) ([2]; healthy elderly human subject): High uptake | Brain penetration (in words) ([3]; five normal male mice, IV, 1 hour): brain penetrant | SUV, Bladder [3, 8]: 1.27 SUV and 3.66 SUV and 1.13 SUV and 0.73 SUV and 0.18 SUV | SUV, Blood [3, 8]: 0.47 SUV and 0.36 SUV and 0.94 SUV and 0.69 SUV and 0.38 SUV | SUV, Bone [3, 8]: 0.72 SUV and 0.5 SUV and 1.11 SUV (2×) and 0.38 SUV | SUV, Brain Stem [3, 8]: 0.25 SUV (2×) and 0.34 SUV and 0.32 SUV and 0.11 SUV | SUV, Caudate Nuclei [3, 8]: 0.34 SUV and 0.23 SUV and 0.57 SUV and 0.63 SUV and 0.09 SUV | SUV, Cerebellum [3, 8]: 0.27 SUV (2×) and 0.38 SUV and 0.49 SUV and 0.13 SUV | SUV, Cortex [3, 8]: 0.2 SUV (2×) and 0.19 SUV and 0.27 SUV and 0.09 SUV | SUV, Heart [3, 8]: 1.11 SUV (2×) and 1.47 SUV and 1.1 SUV and 0.82 SUV | SUV, Hippocampus [3, 8]: 0.28 SUV and 0.24 SUV and 0.88 SUV and 0.87 SUV and 0.12 SUV | SUV, Kidney [3, 8]: 3.8 SUV and 4.32 SUV and 6.01 SUV and 4.49 SUV and 2.42 SUV | SUV, Liver [3, 8]: 6.18 SUV and 5.27 SUV and 8.72 SUV and 6.29 SUV and 3.4 SUV | SUV, Lung [3, 8]: 2.67 SUV and 1.8 SUV and 2.54 SUV and 2.19 SUV and 1.13 SUV | SUV, Muscle [3, 8]: 0.2 SUV and 0.19 SUV and 0.31 SUV and 0.26 SUV and 0.1 SUV | SUV, Pancreas [3, 8]: 10.67 SUV and 5.25 SUV and 11.95 SUV and 10.68 SUV and 5.33 SUV | SUV, Spleen [3, 8]: 2.37 SUV and 1.8 SUV and 3.71 SUV and 2.62 SUV and 0.97 SUV | SUV, Thalamus [3, 8]: 0.29 SUV and 0.25 SUV and 0.38 SUV and 0.28 SUV and 0.11 SUV | SUV, Upper Intestine [3, 8]: 3.02 SUV and 2.99 SUV and 7.66 SUV and 6.46 SUV and 3.47 SUV | SUV, Whole Brain [3, 8]: 0.25 SUV and 0.23 SUV and 0.35 SUV and 0.3 SUV and 0.1 SUV | SUV, Prostate [3, 9]: 0.47 SUV and 0.85 SUV and 0.44 SUV | SUV, Seminal Vesicle [3, 9]: 1.397 SUV and 2.588 SUV and 1.09 SUV | SUV, Bladder, Average [3, 10]: 1.39 SUV | SUV, Blood, Average [3, 10]: 0.57 ± 0.25 SUV | SUV, Bone, Average [3, 10]: 0.76 ± 0.34 SUV | SUV, Brain Stem, Average [3, 10]: 0.25 ± 0.09 SUV | SUV, Caudate Nuclei, Average [3, 10]: 0.37 ± 0.23 SUV | SUV, Cerebellum, Average [3, 10]: 0.31 ± 0.14 SUV | SUV, Cortex, Average [3, 10]: 0.19 ± 0.07 SUV | SUV, Heart, Average [3, 10]: 1.12 ± 0.23 SUV | SUV, Hippocampus, Average [3, 10]: 0.48 ± 0.37 SUV | SUV, Liver, Average [3, 10]: 6.0±1.9 SUV and 5.97 ± 1.92 SUV | SUV, Lung, Average [3, 10]: 2.06 ± 0.62 SUV | SUV, Muscle, Average [3, 10]: 0.21 ± 0.08 SUV | SUV, Pancreas, Average [3, 10]: 8.8±3.2 SUV and 8.78 ± 3.22 SUV | SUV, Prostate, Average [3, 10]: 0.58 ± 0.23 SUV | SUV, Seminal Vesicle, Average [3, 10]: 1.69 ± 0.79 SUV | SUV, Spleen, Average [3, 10]: 2.30 ± 1.01 SUV | SUV, Thalamus, Average [3, 10]: 0.26 ± 0.10 SUV | SUV, Upper Intestine, Average [3, 10]: 4.7±2.1 SUV and 4.72 ± 2.18 SUV | SUV, Whole Brain, Average [3, 10]: 0.24 ± 0.09 SUV | SUV, Pancreas, Average [3, 11]: 8.8±3.2 SUV | SUV, Whole Brain, Average [3, 11]: 0.24±0.09 SUV | SUV, Blood, Average [3, 12]: 0.57 SUV | SUV, Bone, Average [3, 12]: 0.76 SUV | SUV, Brain Stem, Average [3, 12]: 0.25 SUV | SUV, Caudate Nuclei, Average [3, 12]: 0.37 SUV | SUV, Cerebellum, Average [3, 12]: 0.31 SUV | SUV, Cortex, Average [3, 12]: 0.19 SUV | SUV, Heart, Average [3, 12]: 1.12 SUV | SUV, Hippocampus, Average [3, 12]: 0.48 SUV | SUV, Kidney, Average [3, 12]: 4.21 SUV | SUV, Liver, Average [3, 12]: 5.97 SUV | SUV, Lung, Average [3, 12]: 2.06 SUV | SUV, Muscle, Average [3, 12]: 0.21 SUV | SUV, Pancreas, Average [3, 12]: 8.78 SUV | SUV, Prostate, Average [3, 12]: 0.58 SUV | SUV, Seminal Vesicle, Average [3, 12]: 1.69 SUV | SUV, Spleen, Average [3, 12]: 2.3 SUV | SUV, Thalamus, Average [3, 12]: 0.26 SUV | SUV, Upper Intestine, Average [3, 12]: 4.72 SUV | SUV, Whole Brain, Average [3, 12]: 0.24 SUV | SUV, Kidney, Average [4, 10]: 4.2±1.3 SUV and 4.21 ± 1.30 SUV | Differences in SUVs between intracerebral regions (ANOVA) ([4]; normal mice, 1 hour): did not show statistically significant differences | Uptake in pancreas, liver, kidneys, upper intestines, prostate and seminal vesicles (in words) ([4]; normal mice, 1 hour after IV): high uptake | Uptake in brain regions (regional SUVs) ([4]; normal mice, 1 hour after IV, span over brain regions): 0.2-0.5 SUV | Murine brain uptake (in words) ([4]; normal mice, 60 minutes): moderately low, but significant | Clearance from the cortical brain region between 50 minutes and 90 minutes ([5]; healthy elderly subject): little clearance | Vascular clearance phase in cerebral cortical region of interest ([5]; healthy elderly subject): rapid vascular clearance phase in the first minute | Clearance from the cortical brain region between 50 minutes and 90 minutes [5, 13]: little clearance | Vascular clearance phase in cerebral cortical region of interest [5, 13]: rapid vascular clearance phase in the first minute | Time at which whole-blood concentration relative to plasma reaches equilibrium ([6]; post-injection): around 90 minutes | Time by which clearance from the blood is completed ([6]; venous blood samples after injection): ≤ 90 min

[65Zn] [^65Zn]
Zinc uptake in brain relative to the other metal ions measured [7]: several fold higher
